Results: US20020107250A1, “Rapid-onset formulation of a selective cyclooxygenase-2 inhibitor” (priority 2000, published 2002)

Assay: Solubility of celecoxib and valdecoxib in various solvent liquids
Assay type: physicochemical
Description: Aliquots of a solvent liquid were then added dropwise in approximately 100 mg increments to the solid sample. The resulting mixture was vortexed and/or sonicated between aliquot additions. […] Solubility values preceded by the<symbol denote that, at the particular concentration shown, the mixture was still cloudy, i.e., not all of the drug was fully in dissolved form.

Row | Compound | Solubility in a DGME/water mixture compared with a PEG-400/water mixture (same ratio of mixture ingredients) | Solubility (solvent liquid: Capmul MCM (caprylic/capric mono- and diglycerides)) [mg/g] | Solubility (solvent liquid: Labrasol/DGME/propylene glycol laurate 40:40:20 w/w) [mg/g] | Solubility (solvent liquid: Labrasol/DGME/propylene glycol laurate 45:45:10 w/w) [mg/g] | Solubility (solvent liquid: Miglyol 812 (caprylic/capric triglycerides)) [mg/g] | Solubility (solvent liquid: Tagat TO (polyoxyethylene glyceryl trioleate)) [mg/g] | Solubility (solvent liquid: Tagat TO/Capmul MCM 1:1 w/w) [mg/g] | Advantage in solubility for DGME over propylene glycol (DGME versus propylene glycol) | Solubility (solvent liquid: polyethylene glycol 400) [mg/g] | Solubility (solvent liquid: propylene glycol) [mg/g]
1 | Cc1ccc(-c2cc(C(F)(F)F)nn2-c2ccc(S(N)(=O)=O)cc2)cc1 [celecoxib, 4-[5-(4-methylphenyl)-3-(trifluoromethyl)-1H-pyrazol-1-yl]benzenesulfonamide] | significantly higher | 19 to 21 | 288 to 297 | 313 to 325 | 6 to 12 | 24 to 40 | 34 to 52 | – | – | –
2 | Cc1onc(-c2ccccc2)c1-c1ccc(S(N)(=O)=O)cc1 [valdecoxib, 4-[5-methyl-3-phenylisoxazol-4-yl]benzenesulfonamide] | – | – | – | – | – | – | – | approximately tenfold advantage in solubility | 50 to 85 | 10 to 20
